In PubChem BioAssay (NCI):
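Results reflect a 48-hour exposure of cells in 96-well plates to compound at five concentrations. GI50: concentration for 50% inhibition of growth. TGI denotes the concentration required for complete inhibition of growth.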

Tests used:
Assay in all cases: NCI-60 cell line screen, 48 h
MALME-3M melanoma = tested on: MALME-3M melanoma
PC-3 prostate = tested on: PC-3 prostate
MDA-MB-468 breast = tested on: MDA-MB-468 breast
SR leukemia = tested on: SR leukemia
OVCAR-5 ovarian = tested on: OVCAR-5 ovarian
786-0 renal = tested on: 786-0 renal
TK-10 renal = tested on: TK-10 renal
KM12 colon = tested on: KM12 colon
RXF 393 renal = tested on: RXF 393 renal
A498 renal = tested on: A498 renal
OVCAR-3 ovarian = tested on: OVCAR-3 ovarian
NCI-H460 lung = tested on: NCI-H460 lung
HL-60(TB) leukemia = tested on: HL-60(TB) leukemia
K-562 leukemia = tested on: K-562 leukemia
CAKI-1 renal = tested on: CAKI-1 renal
HT29 colon = tested on: HT29 colon
CCRF-CEM leukemia = tested on: CCRF-CEM leukemia
SK-MEL-2 melanoma = tested on: SK-MEL-2 melanoma
UO-31 renal = tested on: UO-31 renal
COLO 205 colon = tested on: COLO 205 colon
MDA-MB-231 breast = tested on: MDA-MB-231 breast
MCF7 breast = tested on: MCF7 breast
HCC-2998 colon = tested on: HCC-2998 colon
RPMI-8226 leukemia = tested on: RPMI-8226 leukemia
HCT-15 colon = tested on: HCT-15 colon
HCT-116 colon = tested on: HCT-116 colon
SK-MEL-5 melanoma = tested on: SK-MEL-5 melanoma
SK-MEL-28 melanoma = tested on: SK-MEL-28 melanoma
HOP-92 NSCLC = tested on: HOP-92 NSCLC
SF-539 CNS = tested on: SF-539 CNS
OVCAR-8 ovarian = tested on: OVCAR-8 ovarian
MOLT-4 leukemia = tested on: MOLT-4 leukemia
SNB-19 CNS = tested on: SNB-19 CNS
SF-268 CNS = tested on: SF-268 CNS
SF-295 CNS = tested on: SF-295 CNS
EKVX NSCLC = tested on: EKVX NSCLC
BT-549 breast = tested on: BT-549 breast
IGROV1 ovarian = tested on: IGROV1 ovarian
HS 578T breast = tested on: HS 578T breast
UACC-62 melanoma = tested on: UACC-62 melanoma
A549 NSCLC = tested on: A549 NSCLC
SN12C renal = tested on: SN12C renal
T-47D breast = tested on: T-47D breast
M14 melanoma = tested on: M14 melanoma
DU-145 prostate = tested on: DU-145 prostate
OVCAR-4 ovarian = tested on: OVCAR-4 ovarian
SK-OV-3 ovarian = tested on: SK-OV-3 ovarian
ACHN renal = tested on: ACHN renal
SW-620 colon = tested on: SW-620 colon
LOX IMVI melanoma = tested on: LOX IMVI melanoma
HOP-62 NSCLC = tested on: HOP-62 NSCLC
NCI-H23 lung = tested on: NCI-H23 lung
UACC-257 melanoma = tested on: UACC-257 melanoma
NCI-H226 lung = tested on: NCI-H226 lung
NCI-H522 lung = tested on: NCI-H522 lung
U251 CNS = tested on: U251 CNS

COc1ccccc1Nc1nnc(-c2c[nH]c3ccccc23)o1
GI50 (MALME-3M melanoma): 0.816 µM
TGI (MALME-3M melanoma): 15 µM
GI50 (PC-3 prostate): 2.86 µM
TGI (PC-3 prostate): > 100 µM
GI50 (MDA-MB-468 breast): 0.644 µM
TGI (MDA-MB-468 breast): 3.37 µM
GI50 (SR leukemia): 0.395 µM
TGI (SR leukemia): 46.4 µM
GI50 (OVCAR-5 ovarian): 4.99 µM
TGI (OVCAR-5 ovarian): 32.2 µM
GI50 (786-0 renal): 5.07 µM
TGI (786-0 renal): 22.7 µM
GI50 (TK-10 renal): 7.28 µM
TGI (TK-10 renal): > 100 µM
GI50 (KM12 colon): 2.33 µM
TGI (KM12 colon): 16.5 µM
GI50 (RXF 393 renal): 2.09 µM
TGI (RXF 393 renal): 8.14 µM
GI50 (A498 renal): 17.8 µM
TGI (A498 renal): 53.9 µM
GI50 (OVCAR-3 ovarian): 1.59 µM
TGI (OVCAR-3 ovarian): 9.55 µM
GI50 (NCI-H460 lung): 1.66 µM
TGI (NCI-H460 lung): 12.8 µM
GI50 (HL-60(TB) leukemia): 0.625 µM
TGI (HL-60(TB) leukemia): 10.2 µM
GI50 (K-562 leukemia): 0.343 µM
TGI (K-562 leukemia): 79.3 µM
GI50 (CAKI-1 renal): 0.861 µM
TGI (CAKI-1 renal): 80 µM
GI50 (HT29 colon): 0.634 µM
TGI (HT29 colon): 14.6 µM
GI50 (CCRF-CEM leukemia): 0.708 µM
TGI (CCRF-CEM leukemia): 21 µM
GI50 (SK-MEL-2 melanoma): 0.82 µM
TGI (SK-MEL-2 melanoma): 2.82 µM
GI50 (UO-31 renal): 3.65 µM
TGI (UO-31 renal): 55 µM
GI50 (COLO 205 colon): 1.01 µM
TGI (COLO 205 colon): 11.2 µM
GI50 (MDA-MB-231 breast): 2.91 µM
TGI (MDA-MB-231 breast): 24.6 µM
GI50 (MCF7 breast): 0.614 µM
TGI (MCF7 breast): 17.5 µM
GI50 (HCC-2998 colon): 2.55 µM
TGI (HCC-2998 colon): 16.2 µM
GI50 (RPMI-8226 leukemia): 2.25 µM
TGI (RPMI-8226 leukemia): 16.9 µM
GI50 (HCT-15 colon): 0.451 µM
TGI (HCT-15 colon): 21.8 µM
GI50 (HCT-116 colon): 5.38 µM
TGI (HCT-116 colon): 54 µM
GI50 (SK-MEL-5 melanoma): 2.02 µM
TGI (SK-MEL-5 melanoma): 5.81 µM
GI50 (SK-MEL-28 melanoma): 4.48 µM
TGI (SK-MEL-28 melanoma): 24 µM
GI50 (HOP-92 NSCLC): 4.55 µM
TGI (HOP-92 NSCLC): 40.6 µM
GI50 (SF-539 CNS): 1.63 µM
TGI (SF-539 CNS): 4.76 µM
GI50 (OVCAR-8 ovarian): 2.87 µM
TGI (OVCAR-8 ovarian): 26.2 µM
GI50 (MOLT-4 leukemia): 0.716 µM
TGI (MOLT-4 leukemia): 14.4 µM
GI50 (SNB-19 CNS): 3.14 µM
TGI (SNB-19 CNS): > 100 µM
GI50 (SF-268 CNS): 3.77 µM
TGI (SF-268 CNS): > 100 µM
GI50 (SF-295 CNS): 0.857 µM
TGI (SF-295 CNS): 5.69 µM
GI50 (EKVX NSCLC): 2.63 µM
TGI (EKVX NSCLC): > 100 µM
GI50 (BT-549 breast): 3.07 µM
TGI (BT-549 breast): 26 µM
GI50 (IGROV1 ovarian): 0.682 µM
TGI (IGROV1 ovarian): 37.9 µM
GI50 (HS 578T breast): 2.2 µM
TGI (HS 578T breast): 15.6 µM
GI50 (UACC-62 melanoma): 1.39 µM
TGI (UACC-62 melanoma): 14.5 µM
GI50 (A549 NSCLC): 2.99 µM
TGI (A549 NSCLC): > 100 µM
GI50 (SN12C renal): 3.01 µM
TGI (SN12C renal): 16.4 µM
GI50 (T-47D breast): 2.87 µM
TGI (T-47D breast): 25 µM
GI50 (M14 melanoma): 0.982 µM
TGI (M14 melanoma): 22.7 µM
GI50 (DU-145 prostate): 4.26 µM
TGI (DU-145 prostate): > 100 µM
GI50 (OVCAR-4 ovarian): 7.54 µM
TGI (OVCAR-4 ovarian): > 100 µM
GI50 (SK-OV-3 ovarian): 1.93 µM
TGI (SK-OV-3 ovarian): 25.4 µM
GI50 (ACHN renal): 5.4 µM
TGI (ACHN renal): 45.7 µM
GI50 (SW-620 colon): 0.598 µM
TGI (SW-620 colon): > 100 µM
GI50 (LOX IMVI melanoma): 2.21 µM
TGI (LOX IMVI melanoma): 18.2 µM
GI50 (HOP-62 NSCLC): 3.11 µM
TGI (HOP-62 NSCLC): 40 µM
GI50 (NCI-H23 lung): 1.89 µM
TGI (NCI-H23 lung): 16.6 µM
GI50 (UACC-257 melanoma): 4.95 µM
TGI (UACC-257 melanoma): 32.4 µM
GI50 (NCI-H226 lung): 4.69 µM
TGI (NCI-H226 lung): > 100 µM
GI50 (NCI-H522 lung): 0.476 µM
TGI (NCI-H522 lung): 3.68 µM
GI50 (U251 CNS): 2.43 µM
TGI (U251 CNS): 16.4 µM
